From patent publication US20260256702A1, “SUSTAINED ADJUNCT THERAPY TO IMPROVE CHEMOTHERAPY EFFICACY IN GLIOBLASTOMA IN A CEREBROVASCULA TUMOR-ON-A-CHIP MODEL” (Ohio State Innovation Foundation, priority 2022, published 2026) come the findings set out here.

This assay has as its system human umbilical vein endothelial cells (HUVECs). The assay is described as follows: Capillary tubule formation assay. In kind it is cell-based. From the text: We have developed a novel process that combines electrospinning, sintering, and salt leaching to create tunable capsules for long-term controlled release of a compound. The capsules enable high levels of therapeutic loading with preserved bioactivity due to the hollow core that is loaded post-processing without the typical loss seen during encapsulation procedures. The polymers in the device are biocompatible, biodegradable, and used for applications in drug delivery. Chitosan, a positively charged biopolymer was selected for the inner layer of the capsule to electrostatically interact with negatively charged proteins, peptides, and antibodies (e.g. anti-VEGF, αCT11) to slow release. Poly(caprolactone) (PCL) was selected for the outer layer of the device due to its hydrophobicity that slows hydrolytic degradation. Capsule inner diameters ranged from 0.26-1.7 mm, with average wall thickness of 90 μm. Scanning electron microscopy (SEM) was used to measure capsule dimensions and pore size (FIG. 5A). No pores were present after sintering when prepared without salts. Pore size increased from 237±97 nm to 609±274 nm for 1% to 10% salt concentrations, and elution was increased at >5% salt concentration due to pore interconnectivity. In preliminary studies, in vitro release of model protein BSA and anti-VEGF (bevacizumab) were evaluated. […]

As for “bevacizumab: anti-VEGF (149 kDa), released from capsules”, the tubule formation entry (VEGF 5 ng/ml, 10 μg/ml bevacizumab released from capsules at time points out to 9 months) is on record as “tubule formation was inhibited”. The “tubule size versus fresh anti-VEGF control” value (anti-VEGF released after 9 months, 5 ng VEGF) is on record as “no significant difference in tubule size”.
